# Data as given in US20260355196A1, “INHIBITORS AND DEGRADERS OF PIP4K PROTEIN” (Larkspur Biosciences, Inc., priority 2023, published 2026).
# Molecular target: T1, PIP4K2C (Homo sapiens, UniProt Q8TBX8)
# T1 sequence (Q8TBX8 1-421): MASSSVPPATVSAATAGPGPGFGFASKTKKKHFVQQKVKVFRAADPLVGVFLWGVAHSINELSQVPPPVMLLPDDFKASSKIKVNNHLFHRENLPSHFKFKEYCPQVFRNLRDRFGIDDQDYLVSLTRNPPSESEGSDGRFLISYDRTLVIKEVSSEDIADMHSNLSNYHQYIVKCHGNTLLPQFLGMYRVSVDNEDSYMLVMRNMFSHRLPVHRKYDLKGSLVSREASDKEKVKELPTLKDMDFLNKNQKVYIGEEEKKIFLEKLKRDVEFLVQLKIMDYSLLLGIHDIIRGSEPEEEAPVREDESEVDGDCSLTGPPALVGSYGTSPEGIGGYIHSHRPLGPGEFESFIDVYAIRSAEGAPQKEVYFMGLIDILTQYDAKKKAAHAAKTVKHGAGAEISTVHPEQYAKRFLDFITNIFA
# Assay: HiBiT PIP4K2C degradation assay in MOLT-4 cells (endogenous PIP4K2C C-terminally tagged with HiBiT)
# Format: cell-based
# Design: untagged in primary human PBMCs and monocyte-derived dendritic cells
# Details: 6 hours of incubation time, rather than 24 hours; MOLT-4, top concentration 10 micromolar; read-out: HiBIT-degradation MOLT4 PIP4k2C DC50 (6 hours, marked *)
# Method in brief: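 MOLT-4 cells with endogenous PIP4K2C C-terminally HiBiT-tagged by CRISPR were treated with a 10-point, 3-fold dilution series from 10 micromolar, in duplicate, for 24 h or 6 h at 37 C. Remaining tagged protein read by HiBiT lytic luminescence; DC50 from Hill-equation fit.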
row,SMILES,DC50
1,"O=C1CCC(Nc2ccc(C3CCN([C@H]4CC[C@H](NC(=O)[C@H]5CC[C@H](Nc6ncc(F)c(-c7ccnc(C8(O)CCC8)c7)n6)CC5)CC4)CC3)c(F)c2)C(=O)N1 (stereo partly drawn) [Compound 548, trans-N-(trans-4-(4-(4-((2,6-dioxopiperidin-3-yl)amino)-2-fluorophenyl)piperidin-1-yl)cyclohexyl)-4-((5-fluoro-4-(2-(1-hydroxycyclobutyl)pyridin-4-yl)pyrimidin-2-yl)amino)cyclohexane-1-carboxamide]",< 500 nM
2,"O=C1CCC(Nc2ccc(C3CCN(CC4(O)CCN(C(=O)[C@H]5CC[C@H](Nc6ncc(F)c(-c7cccc(N8CCOCC8=O)c7)n6)CC5)CC4)CC3)c(F)c2)C(=O)N1 (stereo partly drawn) [Compound 578, trans-3-((3-fluoro-4-(1-((1-(4-((5-fluoro-4-(3-(3-oxomorpholino)phenyl)pyrimidin-2-yl)amino)cyclohexane-1-carbonyl)-4-hydroxypiperidin-4-yl)methyl)piperidin-4-yl)phenyl)amino)piperidine-2,6-dione]",< 500 nM
3,"O=C1CCC(Nc2ccc(C3CCN([C@H]4CC[C@H](C(=O)N[C@H]5CC[C@H](Nc6ncc(F)c(-c7cccc(N8CCCCC8=O)n7)n6)CC5)CC4)CC3)c(F)c2)C(=O)N1 (stereo partly drawn) [Compound 566, trans-(1r,4R)-4-(4-(4-((2,6-dioxopiperidin-3-yl)amino)-2-fluorophenyl)piperidin-1-yl)-N-((1r,4R)-4-((5-fluoro-4-(6-(2-oxopiperidin-1-yl)pyridin-2-yl)pyrimidin-2-yl)amino)cyclohexyl)cyclohexane-1-carboxamide]",< 500 nM

# Other lines, results leading:
row,DC50,SMILES
1,< 500 nM,"O=C1CCC(Nc2ccc(N3CCN(CC4(O)CCN(C(=O)[C@H]5CC[C@H](Nc6ncc(F)c(-c7cccc(-c8ccccc8)c7)n6)CC5)CC4)CC3)c(F)c2)C(=O)N1 (stereo partly drawn) [Compound 463, trans-3-[3-fluoro-4-[4-[[1-[4-[[5-fluoro-4-(3-phenylphenyl)pyrimidin-2-yl]amino]cyclohexanecarbonyl]-4-hydroxy-4-piperidyl]methyl]piperazin-1-yl]anilino]piperidine-2,6-dione]"
2,< 500 nM,"Cn1nc(C2CCC(=O)NC2=O)c2ccc(N3CCN(CCN4CCC(C(=O)N[C@H]5CC[C@H](Nc6ncc(F)c(-c7cccc(-n8ccccc8=O)c7)n6)CC5)CC4)CC3)cc21 (stereo partly drawn) [Compound 506, trans-1-(2-(4-(3-(2,6-dioxopiperidin-3-yl)-1-methyl-1H-indazol-6-yl)piperazin-1-yl)ethyl)-N-((1r,4r)-4-((5-fluoro-4-(3-(2-oxopyridin-1(2H)-yl)phenyl)pyrimidin-2-yl)amino)cyclohexyl)piperidine-4-carboxamide]"
3,< 500 nM,"O=C1CC[C@@H](Nc2ccc(C3CCN(CC4CCN(C(=O)[C@H]5CC[C@H](Nc6ncc(F)c(-c7cccc(-n8ccccc8=O)c7)n6)CC5)CC4)CC3)c(F)c2)C(=O)N1 (single isomer, unassigned) [Compound 455]"
4,< 500 nM,"O=C1CCC(Nc2ccc(N3CCN(CC4CCN(C(=O)[C@H]5CC[C@H](Nc6ncc(F)c(-c7cccc(N8CCCCC8=O)c7)n6)CC5)CC4)CC3)c(F)c2)C(=O)N1 (stereo partly drawn) [Compound 393, trans-3-[3-fluoro-4-[4-[[1-[4-[[5-fluoro-4-[3-(2-oxo-1-piperidyl)phenyl]pyrimidin-2-yl]amino]cyclohexanecarbonyl]-4-piperidyl]methyl]piperazin-1-yl]anilino]piperidine-2,6-dione]"
5,< 500 nM,"O=C1CCC(Nc2ccc(N3CCN(C4CCN(C(=O)O[C@H]5CC[C@H](Nc6ncc(F)c(-c7cccc(-c8ccccc8)c7)n6)CC5)CC4)CC3)c(F)c2)C(=O)N1 (stereo partly drawn) [Compound 664, trans-[4-[[5-fluoro-4-(3-phenylphenyl)pyrimidin-2-yl]amino]cyclohexyl]4-[4-[4-[(2,6-dioxo-3-piperidyl)amino]-2-fluoro-phenyl]piperazin-1-yl]piperidine-1-carboxylate]"
6,< 500 nM,"O=C1CCC(Nc2ccc(N3CCC(N4CCC(NC(=O)[C@H]5CC[C@H](Nc6ncc(F)c(-c7cccc(-n8ccccc8=O)c7)n6)CC5)CC4)C(F)C3)c(F)c2)C(=O)N1 (stereo partly drawn) [Compound 452, trans-N-(1′-(4-((2,6-dioxopiperidin-3-yl)amino)-2-fluorophenyl)-3′-fluoro-[1,4′-bipiperidin]-4-yl)-4-((5-fluoro-4-(3-(2-oxopyridin-1(2H)-yl)phenyl)pyrimidin-2-yl)amino)cyclohexane-1-carboxamide]"

# Same assay, conditions: 24 hours incubation, MOLT-4, top concentration 10 micromolar; read-out: HiBIT-degradation MOLT4 PIP4k2C 24 hours DC50
row,SMILES,DC50
1,"O=C1CCC(n2c(=O)oc3cc(N4CCN(CCC5CCN(C(=O)[C@@H]6CCC[C@H](Nc7ncc(F)c(-c8cccc(-n9ccccc9=O)c8)n7)C6)CC5)CC4)ccc32)C(=O)N1 (relative stereo) [Compound 342, cis-3-(6-(4-(2-(1-(3-((5-fluoro-4-(3-(2-oxopyridin-1(2H)-yl)phenyl)pyrimidin-2-yl)amino)cyclohexane-1-carbonyl)piperidin-4-yl)ethyl)piperazin-1-yl)-2-oxobenzo[d]oxazol-3 (2H)-yl)piperidine-2,6-dione]",< 500 nM
2,"O=C1CCC(Oc2ccc(N3CCC(O)(CC(=O)N4CCN(C(=O)[C@H]5CCC[C@@H](Nc6ncc(Cl)c(-c7cccc(-c8ccc(F)cc8)c7)n6)C5)CC4)CC3)c(F)c2)C(=O)N1 (relative stereo) [Compound 292, cis-3-(4-(4-(2-(4-(3-((5-chloro-4-(4′-fluoro-[1,1′-biphenyl]-3-yl)pyrimidin-2-yl)amino)cyclohexane-1-carbonyl)piperazin-1-yl)-2-oxoethyl)-4-hydroxypiperidin-1-yl)-3-fluorophenoxy)piperidine-2,6-dione]",> 5000 nM
3,"O=C(COc1cccc2c1CN(C1CCC(=O)NC1=O)C2=O)NCCCCC(=O)N1CCC(C(=O)N2CCC(Nc3ncc(Cl)c(-c4cccc(-c5ccccc5)c4)n3)CC2)CC1 (stereo not drawn) [Compound 69, N-(5-(4-(4-((4-([1,1′-biphenyl]-3-yl)-5-chloropyrimidin-2-yl)amino)piperidine-1-carbonyl)piperidin-1-yl)-5-oxopentyl)-2-((2-(2,6-dioxopiperidin-3-yl)-1-oxoisoindolin-4-yl)oxy)acetamide]",< 500 nM
4,"Cn1nc(N2CCC(=O)NC2=O)c2ccc(C3CCN(CC(=O)N4CCC(O)(C(=O)N5CCC(Nc6ncc(F)c(-c7cccc(-n8ccccc8=O)c7)n6)CC5)CC4)CC3)cc21 [Compound 346, 1-(6-(1-(2-(4-(4-((5-fluoro-4-(3-(2-oxopyridin-1(2H)-yl)phenyl)pyrimidin-2-yl)amino)piperidine-1-carbonyl)-4-hydroxypiperidin-1-yl)-2-oxoethyl)piperidin-4-yl)-1-methyl-1H-indazol-3-yl)dihydropyrimidine-2,4(1H,3H)-dione]",> 5000 nM

# Results, then the compound that gave them:
row,DC50,SMILES
1,< 500 nM,"O=C1CCC(Nc2ccc(N3CCC(CN4CCN(CC(=O)N[C@H]5CC[C@H](Nc6ncc(F)c(-c7cccc(-n8ccccc8=O)c7)n6)CC5)CC4)CC3)c(F)c2)C(=O)N1 (stereo partly drawn) [Compound 327, trans-2-[4-[[1-[4-[(2,6-dioxo-3-piperidyl)amino]-2-fluoro-phenyl]-4-piperidyl]methyl]piperazin-1-yl]-N-[4-[[5-fluoro-4-[3-(2-oxo-1-pyridyl)phenyl]pyrimidin-2-yl]amino]cyclohexyl]acetamide]"
2,< 500 nM,"O=C1CCC(Nc2ccc(N3CCN(CC4CCN(CC(=O)N5CCC(Nc6ncc(F)c(-c7cccc(-n8ccccc8=O)c7)n6)CC5)CC4)CC3)c(F)c2)C(=O)N1 (stereo not drawn) [Compound 341, 3-((3-fluoro-4-(4-((1-(2-(4-((5-fluoro-4-(3-(2-oxopyridin-1(2H)-yl)phenyl)pyrimidin-2-yl)amino)piperidin-1-yl)-2-oxoethyl)piperidin-4-yl)methyl)piperazin-1-yl)phenyl)amino)piperidine-2,6-dione]"
